From patent US8148404B2, “Modulators of CB1 receptors” (7TM Pharma A/S, priority 2006, dated 2012) come the findings set out here.

The assay concerns the target T1, human CB1 receptor (Homo sapiens, UniProt P21554).
T1 construct: expressed in transfected cells; membranes used
Put plainly: Cannabinoid Receptor-1 functional assay: inhibition of CP55940-induced [35S]GTPγS binding to membranes of CHO-K1 cells expressing human CB1. It counts as biochemical. Particulars: 3 nM CP55940, [35S]GTPγS SPA, hCB1 membranes; read-out: IC50 value for antagonizing a CB1 receptor agonist. An excerpt: Transfection and Cell Culture—The cDNA encoding the human CB1 (Cannabinoid Receptor-1) receptor (GenBank accession number NM_016083) was cloned from a human adipose tissue cDNA library and cloned into the eukaryotic expression vector pcDNA3.1 (Invitrogen).
Chinese Hamster Ovary cells (CHO-K1) stably expressing recombinant human CB1 were generated by transfecting the plasmid containing the coding sequence of the human CB1 receptor in CHO-K1 cells, using lipofectamin, according to the manufacturer instructions. Resistant clones were selected in the presence of 600 μg/ml G418 (Life technology). Stably transfected CHO-K1 cells were maintained in Ham's F-12 culture medium (Invitrogen), supplemented with 10% fetal calf serum (Invitrogen), 100 U/ml penicillin, 100 μg/ml streptomycin (Life Technology), and 600 μg/ml G418.
Functional activities of the above examples of compounds of the invention were assessed in vitro by measuring their ability to inhibit CP55940-induced [^35S]GTPγS binding to membranes prepared from CHO-K1 cells expressing the human CB1 receptor (described in Transfection and Cell Culture). CP55940 is a well known non-selective CB1 and CB2 receptor agonist (e.g Felder et al., 1995, Molecular Pharmacology, (48) 443-50). Membranes were prepared by a standard procedure. Briefly, cells were harvested using 10 mM EDTA and collected by centrifugation. Pelleted cells were homogenized in ice-cold 20 mM Hepes (pH 7.4), 10 mM EDTA and protease inhibitors (Complete protease inhibitor cocktail tablet, Roche) using an Ultra Turrax Homogenizer. The homogenate was centrifuged at 14 000 rpm for 45 min. at 4° C. The resultant pellet was resuspended in the same buffer but with only 0.1 mM EDTA and was again centrifuged at 14 000 rpm for 45 min. at 4° C. The resulting pellet (membranes) was resuspended in 20 mM Hepes (pH 7.4), 0.1 mM EDTA, 2 mM MgCl2 and protease inhibitors and protein concentration was determined by Micro BCA Protein Assay Reagent Kit (Pierce Biotechnology) according to the manufacturer instructions. The [^35S]GTPγS SPA (Scintillation Proximity Assay) binding assay was performed by incubating 5 μg/well hCB1-membranes with 1 nM [^35S]GTPγS (Perkin Elmer—NEG 030H) in the presence of 3 nM of CP55940 and various concentrations of the test compounds at room temperature for 1 hr in 96-well microtiter plates. 0.4 mg/well SPA beads (PVT-WGA; RPNQ0001 Amersham Pharmacia Biotech) were then added and the incubation continued for further 30 min. on an orbital shaker. The assay buffer contained 50 mM HEPES (pH 7.5), 50 mM NaCl, 2.5 mM MgCl2, 0.1% BSA, 1 μM GDP and 100 μg/ml Saponin. Microtiter plates were centrifuged at 1500 rpm for 5 min. and radioactivity was read immediately using a Topcounter (PerkinElmer Life Sciences). Data were analyzed and IC50 values determined by non-linear regression using the Prism software (GraphPad Software, San Diego).
For orientation: GTPγS is a poorly hydrolysed GTP analogue; its binding reports G protein activation.

pIC50: −log10 of the molar value. A value given as a limit tells only on which side of the number the result lay.

T1 sequence (P21554 whole entry): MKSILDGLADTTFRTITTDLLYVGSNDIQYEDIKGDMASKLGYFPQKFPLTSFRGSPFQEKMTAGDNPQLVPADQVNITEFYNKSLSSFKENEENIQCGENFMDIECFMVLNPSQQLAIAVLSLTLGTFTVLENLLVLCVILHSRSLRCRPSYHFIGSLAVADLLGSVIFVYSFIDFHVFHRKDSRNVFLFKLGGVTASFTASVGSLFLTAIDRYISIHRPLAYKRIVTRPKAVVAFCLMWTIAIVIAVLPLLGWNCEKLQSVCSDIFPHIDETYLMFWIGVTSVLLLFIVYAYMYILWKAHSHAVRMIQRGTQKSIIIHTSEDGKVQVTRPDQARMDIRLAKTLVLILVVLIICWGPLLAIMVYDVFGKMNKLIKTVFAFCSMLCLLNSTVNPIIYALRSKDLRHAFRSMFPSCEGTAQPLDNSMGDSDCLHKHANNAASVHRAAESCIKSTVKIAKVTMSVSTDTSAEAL

`O=C(O)Cc1c(C(=O)N2CCC(Oc3ccc(F)c(F)c3)CC2)nn(-c2ccccc2Cl)c1-c1ccc(Cl)cc1` [[1.61], {1-(2-Chloro-phenyl)-5-(4-chloro-phenyl)-3-[4-(3,4-difluorophenoxy)-piperidine-1-carbonyl]-1H-pyrazol-4-yl}-acetic acid]: the negative logarithm of the IC50 (pIC50) (as a rule, the IC50 on a negative log10 scale, so that one unit is a factor of ten) was above 6.52. Regarding `O=C(O)Cc1c(C(=O)N2CCC(OCc3ccccc3)CC2)nn(-c2ccccc2Cl)c1-c1ccc(Cl)cc1` [[1.49], [3-(4-Benzyloxy-piperidine-1-carbonyl)-1-(2-chloro-phenyl)-5-(4-chloro-phenyl)-1H-pyrazol-4-yl]-acetic acid], the negative-log IC50 (pIC50) was above 6.52. In the case of `O=C(O)Cc1c(C(=O)N2CCC(Oc3cccc(F)c3)CC2)nn(-c2ccccc2Cl)c1-c1ccc(Cl)cc1` [[1.62], {1-(2-Chloro-phenyl)-5-(4-chloro-phenyl)-3-[4-(3-fluorophenoxy)-piperidine-1-carbonyl]-1H-pyrazol-4-yl}-acetic acid] it was above 6.52; in that of `Cc1noc(C2CCN(C(=O)c3nn(-c4ccccc4Cl)c(-c4ccc(Cl)cc4)c3CC(=O)O)CC2)n1` [[1.20], {1-(2-Chloro-phenyl)-5-(4-chloro-phenyl)-3-[4-(3-methyl-[1,2,4]oxadiazol-5-yl)-piperidine-1-carbonyl]-1H-pyrazol-4-yl}-acetic acid], 5.52 to 6.52; in that of `Cc1c(C(=O)N2CCC(C(=O)O)(c3ccccc3)CC2)nn(-c2ccccc2Cl)c1-c1ccc(Cl)cc1` [[2.1], 1-[5-(4-Chloro-phenyl)-1-(2-chloro-phenyl)-4-methyl-1H-pyrazole-3-carbonyl]-4-phenyl-piperidine-4-carboxylic acid], above 6.52.

In the case of `CC(C(=O)O)c1c(C(=O)N2CCC(c3ccccc3F)CC2)nn(-c2ccccc2Cl)c1-c1ccc(Cl)cc1` (centres unmarked) [Compound [1.52], 2-{1-(2-Chloro-phenyl)-5-(4-chloro-phenyl)-3-[4-(2-fluoro-phenyl)-piperidine-1-carbonyl]-1H-pyrazol-4-yl}-propionic acid], the pIC50 was above 6.52. Turning to `O=C(O)Cc1c(C(=O)N2CCC(c3cccc(F)c3)CC2)nn(-c2ccccc2Cl)c1-c1ccc(Cl)cc1` [Compound [1.13], {1-(2-Chloro-phenyl)-5-(4-chloro-phenyl)-3-[4-(3-fluoro-phenyl)-piper-idine-1-carbonyl]-1H-pyrazol-4-yl}-acetic acid], the negative logarithm of the IC50 (pIC50) was above 6.52. With `O=C(O)Cc1c(C(=O)N2CCC(O)(c3ccccn3)CC2)nn(-c2ccccc2Cl)c1-c1ccc(Cl)cc1` [[1.9], [1-(2-Chloro-phenyl)-5-(4-chloro-phenyl)-3-(4′-hydroxy-3′,4′,5′,6′-tetrahydro-2′H-[2,4′]bipyridinyl-1′-carbonyl)-1H-pyrazol-4yl]-acetic acid], the pIC50 was 5.52 to 6.52. In the case of `O=C(O)COc1c(C(=O)N2CCC(c3ccc(F)cc3)CC2)nn(-c2ccccc2Cl)c1-c1ccc(Cl)cc1` [Compound [1.3], {5-(4-Chloro-phenyl)-1-(2-chloro-phenyl)-3-[4-(4-fluoro-phenyl)-piper-idine-1-carbonyl]-1H-pyrazol-4-yloxy}-acetic acid] it was above 6.52; in that of `O=C(c1nn(-c2ccccc2Cl)c(-c2ccc(Cl)cc2)c1Cc1nn[nH]n1)N1CCC(Oc2cccc(F)c2)CC1` [[3.9], [1-(2-Chloro-phenyl)-5-(4-chloro-phenyl)-4-(2H-tetrazol-5-ylmethyl)-1H-pyrazol-3-yl]-[4-(3-fluorophenoxy)-piperidin-1-yl]-methanone], above 6.52; in that of `N#Cc1ccc(C2CCN(C(=O)c3nn(-c4ccccc4Cl)c(-c4ccc(Cl)cc4)c3CC(=O)O)CC2)cc1` [[1.45], {1-(2-Chloro-phenyl)-5-(4-chloro-phenyl)-3-[4-(4-cyano-phenyl)-piperidine-1-carbonyl]-1H-pyrazol-4-yl}-acetic acid], above 6.52. As for `O=C(O)Cc1c(C(=O)N2CCC(c3ccc(F)cc3F)CC2)nn(-c2ccccc2Cl)c1-c1ccc(Cl)cc1` [[1.26], {1-(2-Chloro-phenyl)-5-(4-chloro-phenyl)-3-[4-(2,4-difluoro-phenyl)-piperidine-1-carbonyl]-1H-pyrazol-4-yl}-acetic acid], the pIC50 was above 6.52. On to `O=C(O)Cc1c(C(=O)N2CCC(c3ccncc3)CC2)nn(-c2ccccc2Cl)c1-c1ccc(Cl)cc1` [[1.32], [1-(2-Chloro-phenyl)-5-(4-chloro-phenyl)-3-(3,4,5,6-tetrahydro-2H-[4,4′]bipyridinyl-1-carbonyl)-1H-pyrazol-4-yl}-acetic acid], for which the negative-log IC50 (pIC50) is 5.52 to 6.52. Regarding `N#Cc1cccc(C2CCN(C(=O)c3nn(-c4ccccc4Cl)c(-c4ccc(Cl)cc4)c3CC(=O)O)CC2)c1` [[1.34], {1-(2-Chloro-phenyl)-5-(4-chloro-phenyl)-3-[4-(3-cyano-phenyl)-piperidine-1-carbonyl]-1H-pyrazol-4-yl}-acetic acid], the pIC50 is above 6.52. Turning to `O=C(O)Cc1c(C(=O)N2CCC(O)(c3cccnc3)CC2)nn(-c2ccccc2Cl)c1-c1ccc(Cl)cc1` [Compound [1.8], [1-(2-Chloro-phenyl)-5-(4-chloro-phenyl)-3-(4′-hydroxy-3′,4′,5′,6′-tetrahydro-2′H-[3,4′]bipyridinyl-1′-carbonyl)-1H-pyrazol-4yl]-acetic acid], the pIC50 was 5.00 to 5.52.

Consider `O=C(O)Cc1c(C(=O)N2CCCC2c2ccc(C(F)(F)F)cc2)nn(-c2ccccc2Cl)c1-c1ccc(Cl)cc1` (centres unmarked) [[1.38], {1-(2-Chloro-phenyl)-5-(4-chloro-phenyl)-3-[2-(4-trifluoromethyl-phenyl)-pyrrolidine-1-carbonyl]-1H-pyrazol-4-yl}-acetic acid], for which the pIC50 was above 6.52. As for `O=C(c1nn(-c2ccccc2Cl)c(-c2ccc(Cl)cc2)c1Cc1nn[nH]n1)N1CCC(Oc2ccc(Cl)cc2)CC1` [[3.6], [1-(2-Chloro-phenyl)-5-(4-chloro-phenyl)-4-(2H-tetrazol-5-ylmethyl)-1H-pyrazol-3-yl]-[4-(4-chlorophenoxy)-piperidin-1-yl]-methanone], the pIC50 is above 6.52. As to `O=C(O)Cc1c(C(=O)N2CCC(c3ccc(Cl)cc3)CC2)nn(-c2ccccc2Cl)c1-c1ccc(Cl)cc1` [[1.29], {1-(2-Chloro-phenyl)-5-(4-chloro-phenyl)-3-[4-(4-chloro-phenyl)-piperidine-1-carbonyl]-1H-pyrazol-4-yl}-acetic acid], the pIC50 was above 6.52. In the case of `O=C(O)Cc1c(C(=O)N2CCC(c3ccccc3Cl)CC2)nn(-c2ccccc2Cl)c1-c1ccc(Cl)cc1` [[1.54], {1-(2-Chloro-phenyl)-5-(4-chloro-phenyl)-3-[4-(2-chloro-phenyl)-piper-idine-1-carbonyl]-1H-pyrazol-4-yl}-acetic acid] it was above 6.52.

For `O=C(O)Cc1c(C(=O)N2CC=C(c3ccccc3)CC2)nn(-c2ccccc2Cl)c1-c1ccc(Cl)cc1` [Compound [1.1], [1-(2-Chloro-phenyl)-5-(4-chloro-phenyl)-3-(4-phenyl-3,6-dihydro-2H-pyridine-1-carbonyl)-1H-pyrazol-4-yl]-acetic acid], the pIC50 was above 6.52.

Regarding `O=C(O)Cc1c(C(=O)N2CCC(c3cccc(Cl)c3)CC2)nn(-c2ccccc2Cl)c1-c1ccc(Cl)cc1` [[1.31], {1-(2-Chloro-phenyl)-5-(4-chloro-phenyl)-3-[4-(3-chloro-phenyl)-piperidine-1-carbonyl]-1H-pyrazol-4-yl}-acetic acid], the pIC50 was above 6.52. The value for `O=C(O)Cc1c(C(=O)N2CCC(c3cccs3)CC2)nn(-c2ccccc2Cl)c1-c1ccc(Cl)cc1` [[1.23], [5-(4-Chloro-phenyl)-1-(2-chloro-phenyl)-3-(4-thiophen-2-yl-piperidine-1-carbonyl)-1H-pyrazol-4-yl]-acetic acid] was above 6.52; that for `O=C(O)Cc1c(C(=O)N2CCC(c3cccc(C(F)(F)F)c3)CC2)nn(-c2ccccc2Cl)c1-c1ccc(Cl)cc1` [[1.40], {1-(2-Chloro-phenyl)-5-(4-chloro-phenyl)-3-[4-(3-trifluoromethyl-phenyl)-piperidine-1-carbonyl]-1H-pyrazol-4-yl}-acetic acid] was above 6.52.
